Data as given in ChEMBL document CHEMBL1821663, “Synthesis and biological evaluation of glycogen synthase kinase 3 (GSK-3) inhibitors: an fast and atom efficient access to 1-aryl-3-benzylureas” (Bioorg Med Chem Lett, 2011).

Key:
[1] = biological target: T1, Glycogen synthase kinase-3 beta (Homo sapiens, UniProt P49841); test: Inhibition of human GSK3-beta activity using Ser/Thr 9 peptide as substrate by FRET assay
Target sequence in this assay (P49841 whole entry): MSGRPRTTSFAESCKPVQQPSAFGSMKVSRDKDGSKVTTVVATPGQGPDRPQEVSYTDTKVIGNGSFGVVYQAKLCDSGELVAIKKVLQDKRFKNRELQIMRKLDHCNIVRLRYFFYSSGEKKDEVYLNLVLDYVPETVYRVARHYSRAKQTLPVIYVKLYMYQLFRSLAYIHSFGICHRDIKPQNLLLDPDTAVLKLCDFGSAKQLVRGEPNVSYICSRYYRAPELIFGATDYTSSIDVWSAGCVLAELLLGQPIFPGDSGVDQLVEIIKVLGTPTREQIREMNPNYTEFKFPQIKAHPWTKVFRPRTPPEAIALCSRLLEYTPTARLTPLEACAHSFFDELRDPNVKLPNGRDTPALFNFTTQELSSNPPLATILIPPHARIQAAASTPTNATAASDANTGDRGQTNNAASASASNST

[2] = biological target: Glycogen synthase kinase-3 alpha (Homo sapiens, UniProt P49840); test: Inhibition of human GSK3alpha activity using Ser/Thr 11 peptide as substrate by FRET assay
[3] = biological target: Cyclin-dependent kinase 5/CDK5 activator 1 (Homo sapiens, UniProt Q00535); test: Inhibition of human CDK5/p35 activity using Ser/Thr 12 peptide as substrate by FRET assay; format: protein-complex assay
[4] = biological target: Casein kinase I isoform epsilon (Homo sapiens, UniProt P49674); test: Inhibition of human CKI epsilon activity using Ser/Thr 11 peptide as substrate by FRET assay
Aurora kinase A = biological target: T2, Aurora kinase A (Homo sapiens, UniProt O14965); test: Inhibition of human AURKA activity using Ser/Thr 1 peptide as substrate by FRET assay
T2 sequence (O14965 whole entry): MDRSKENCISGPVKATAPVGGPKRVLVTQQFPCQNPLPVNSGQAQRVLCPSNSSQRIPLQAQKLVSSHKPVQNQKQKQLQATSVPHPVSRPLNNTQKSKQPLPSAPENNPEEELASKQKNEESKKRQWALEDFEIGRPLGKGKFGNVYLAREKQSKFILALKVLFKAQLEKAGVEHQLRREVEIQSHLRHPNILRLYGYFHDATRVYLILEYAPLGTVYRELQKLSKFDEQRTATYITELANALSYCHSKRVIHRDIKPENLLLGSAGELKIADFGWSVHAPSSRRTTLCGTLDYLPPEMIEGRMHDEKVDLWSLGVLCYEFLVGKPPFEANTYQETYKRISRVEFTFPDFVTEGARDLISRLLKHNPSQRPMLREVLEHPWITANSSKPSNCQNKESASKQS

[5] = biological target: Protein kinase C alpha type (Homo sapiens, UniProt P17252); test: Inhibition of human PKCalpha activity using Ser/Thr 7 peptide as substrate by FRET assay
[6] = biological target: T1, Glycogen synthase kinase-3 beta; test: Inhibition of GSK3-beta assessed as [32P]gamma-ATP incorporation into substrate at 1 uM after 15 mins by gamma counting; values are per cent of control
Target sequence in this assay (P49841 whole entry, looked up): as the sequence (P49841 whole entry) above

[7] = biological target: T1, Glycogen synthase kinase-3 beta; test: Inhibition of GSK3-beta assessed as [32P]gamma-ATP incorporation into substrate at 10 uM after 15 mins by gamma counting; values are per cent of control
Target sequence in this assay (P49841 whole entry, looked up): as the sequence (P49841 whole entry) above

Danio rerio [8] = organism: Danio rerio; test: Toxicity in 8 to 15 -somite stage zebrafish embryo after 18 to 25 hrs; format: organism-based; conditions: in vivo
Danio rerio [9] = organism: Danio rerio; test: Toxicity in 8 to 15 -somite stage zebrafish embryo assessed as deformation in fish tail formation at 100 uM after 18 to 25 hrs; format: organism-based; conditions: in vivo
Danio rerio [10] = organism: Danio rerio; test: Toxicity in 8 to 15 -somite stage zebrafish embryo assessed as swimming movements in circles at 100 uM after 18 to 25 hrs; format: organism-based; conditions: in vivo
Danio rerio [11] = organism: Danio rerio; test: Toxicity in 8 to 15 -somite stage zebrafish embryo assessed as deformation in fish tail formation at 25 uM after 18 to 25 hrs; format: organism-based; conditions: in vivo
Danio rerio [12] = organism: Danio rerio; test: Toxicity in 8 to 15 -somite stage zebrafish embryo assessed as swimming movements in circles at 25 uM after 18 to 25 hrs; format: organism-based; conditions: in vivo

Glycogen synthase kinase-3 alpha, sequence (P49840 whole entry): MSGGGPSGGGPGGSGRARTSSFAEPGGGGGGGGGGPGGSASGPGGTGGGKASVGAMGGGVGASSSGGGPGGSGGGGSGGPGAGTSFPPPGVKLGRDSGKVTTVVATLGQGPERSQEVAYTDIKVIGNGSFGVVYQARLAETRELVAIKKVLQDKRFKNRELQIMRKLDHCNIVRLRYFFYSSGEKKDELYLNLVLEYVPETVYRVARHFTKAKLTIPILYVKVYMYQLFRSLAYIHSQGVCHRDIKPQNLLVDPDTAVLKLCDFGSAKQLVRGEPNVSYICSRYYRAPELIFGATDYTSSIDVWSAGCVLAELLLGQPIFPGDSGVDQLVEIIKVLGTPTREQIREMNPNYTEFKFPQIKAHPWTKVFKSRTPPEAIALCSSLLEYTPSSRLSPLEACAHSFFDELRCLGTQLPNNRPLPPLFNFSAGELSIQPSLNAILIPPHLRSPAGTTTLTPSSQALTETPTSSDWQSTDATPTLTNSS
Casein kinase I isoform epsilon, sequence (P49674 whole entry, canonical isoform): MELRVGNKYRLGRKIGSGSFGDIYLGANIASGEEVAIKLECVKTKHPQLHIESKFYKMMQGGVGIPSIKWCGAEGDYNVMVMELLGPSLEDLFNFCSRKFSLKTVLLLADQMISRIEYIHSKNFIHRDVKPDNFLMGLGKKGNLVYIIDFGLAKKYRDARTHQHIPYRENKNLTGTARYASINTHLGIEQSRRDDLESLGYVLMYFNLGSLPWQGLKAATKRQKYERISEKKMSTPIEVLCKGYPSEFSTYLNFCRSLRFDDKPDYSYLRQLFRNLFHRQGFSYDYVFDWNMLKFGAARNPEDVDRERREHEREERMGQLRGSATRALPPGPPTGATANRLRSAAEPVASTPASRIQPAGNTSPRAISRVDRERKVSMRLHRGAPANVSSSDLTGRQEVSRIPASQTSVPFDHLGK
Cyclin-dependent kinase 5/CDK5 activator 1, sequence (Q00535 whole entry, canonical isoform): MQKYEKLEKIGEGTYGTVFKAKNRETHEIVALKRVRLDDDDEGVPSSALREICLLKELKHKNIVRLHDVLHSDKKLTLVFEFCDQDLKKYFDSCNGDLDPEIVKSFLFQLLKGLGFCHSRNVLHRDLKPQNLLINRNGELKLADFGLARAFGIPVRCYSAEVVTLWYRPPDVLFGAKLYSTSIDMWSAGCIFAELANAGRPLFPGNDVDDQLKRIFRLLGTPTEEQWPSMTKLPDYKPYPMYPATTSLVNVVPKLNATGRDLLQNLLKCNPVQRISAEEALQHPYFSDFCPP
Cyclin-dependent kinase 5/CDK5 activator 1, sequence (Q15078 whole entry, further chain, canonical isoform): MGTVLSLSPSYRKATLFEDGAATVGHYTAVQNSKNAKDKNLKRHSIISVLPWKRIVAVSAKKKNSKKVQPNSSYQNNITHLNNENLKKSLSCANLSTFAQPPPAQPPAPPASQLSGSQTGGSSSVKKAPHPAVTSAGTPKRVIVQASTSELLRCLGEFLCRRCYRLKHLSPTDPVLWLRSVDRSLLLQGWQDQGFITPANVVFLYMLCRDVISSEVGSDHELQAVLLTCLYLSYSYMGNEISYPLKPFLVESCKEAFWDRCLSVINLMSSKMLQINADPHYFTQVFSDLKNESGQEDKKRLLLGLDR

SMILES | IC50 [1] | IC50 [2] | IC50 [3] | IC50 [4] | IC50 (Aurora kinase A) | IC50 [5] | residual activity [6] | residual activity [7] | Activity (Danio rerio [8]) | Activity (Danio rerio [9]) | Activity (Danio rerio [10]) | Activity (Danio rerio [11]) | Activity (Danio rerio [12])
COc1ccc(CNC(=O)Nc2cc(C#N)ccn2)cc1 | 1.43 µM | 1.12 µM | > 100 µM | > 100 µM | > 100 µM | > 100 µM | 101% | 42% | – | – | – | – | –
COc1ccc(CNC(=O)Nc2nc3ccc([N+](=O)[O-])cc3s2)cc1 | 3.64 µM | 0.22 µM | > 100 µM | > 100 µM | > 100 µM | > 100 µM | – | – | – | – | – | – | –
COc1ccc(CNC(=O)Nc2cc(-c3cccnc3F)ccn2)cc1 | 0.098 µM | – | – | – | – | – | – | 12% | – | – | – | – | –
COc1ccc(CNC(=O)Nc2ccc(C#N)cn2)cc1 | – | – | – | – | – | – | 79% | 40% | – | – | – | – | –
COc1ccc(CNC(=O)Nc2cc(-c3ccccc3OC)ccn2)cc1 | – | – | – | – | – | – | 91% | 32% | – | – | – | – | –
COc1ccc(CNC(=O)Nc2cc(-c3nnn[nH]3)ccn2)cc1 | 0.51 µM | 0.37 µM | > 100 µM | > 100 µM | > 100 µM | > 100 µM | 82% | 24% | Non-toxic | Toxic | Toxic | – | –
CCOC(=O)c1sc(NC(=O)NCc2ccc(F)cc2)nc1C | – | – | – | – | – | – | – | – | Non-toxic | – | – | – | –
COc1ccc(CNC(=O)Nc2ccc([N+](=O)[O-])cn2)cc1 | – | – | – | – | – | – | 75% | 31% | – | – | – | – | –
COc1ccc(CNC(=O)Nc2nc3ccc(-c4nnn[nH]4)cc3s2)cc1 | 0.14 µM | 0.13 µM | 26.4 µM | 15.3 µM | 4.8 µM | 24.2 µM | 69% | 18% | Non-toxic | Toxic | Toxic | – | –
COc1ccc(CNC(=O)Nc2ncc([N+](=O)[O-])s2)cc1 | – | – | – | > 100 µM | – | > 100 µM | 55% | 20% | Toxic | – | – | – | –
Nc1nc(NCCNc2ncc(-c3ncc[nH]3)c(-c3ccc(Cl)cc3Cl)n2)ccc1[N+](=O)[O-] | – | – | – | – | – | – | – | – | Non-toxic | – | – | Toxic | Toxic
COc1ccc(CNC(=O)Nc2nc3ccc(C#N)cc3s2)cc1 | – | – | – | – | – | – | 57% | 24% | – | – | – | – | –
